{"source": "paper PMC5807214", "about": "(ACS infectious diseases, 2017)", "key": {"MexG": {"molecular_target": "MexG (Pseudomonas aeruginosa, UniProt Q9HWH6)", "test": "intrinsic tryptophan fluorescence quenching", "type": "binding"}, "MexG-HAWA": {"molecular_target": "T1, MexG-HAWA (Pseudomonas aeruginosa, UniProt Q9HWH6, H95A/W98A)", "T1 sequence (Q9HWH6 1-148 H95A/W98A)": "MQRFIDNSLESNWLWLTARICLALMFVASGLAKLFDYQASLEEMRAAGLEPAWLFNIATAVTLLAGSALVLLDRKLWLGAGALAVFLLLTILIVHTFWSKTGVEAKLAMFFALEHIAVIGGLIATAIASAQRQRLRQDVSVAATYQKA", "test": "intrinsic tryptophan fluorescence quenching", "type": "binding"}}}
{"smiles": "Cn1c2cccc(=O)c-2nc2ccccc21", "note": "[pyocyanin]", "values": [{"measurement": "Kd", "setting": "MexG", "value": "~0.6", "unit": "µM"}, {"measurement": "Kd", "setting": "MexG-HAWA", "value": "~7", "unit": "µM"}]}
